These results are taken from patent US8877773B2, “Methods for treating chronic obstructive pulmonary disease” (Indiana University Research and Technology Corporation, priority 2009, dated 2014).

SMILES strings stand for the structures.

What all share (type): in vivo, rat
In one assay the test system is FG-7142 treated rats. As to the kind of experiment: FG-7142-induced anxiety: open field, social interaction and elevated plus maze tests. The note with it: Wistar rats. Here is the method: All experiments were conducted on adult male Wistar rats (250-300 g) purchased from Harlan Laboratories (Indianapolis, Ind. USA) and were housed individually in plastic cages under standard environmental conditions (22° C.; 12/12 light/dark cycle; lights on at 7:00 A.M.) for 7-10 days prior to the surgical manipulations. Food and water were provided ad libitum.
(§1) The open-field arena covered an area of 90 cm×90 cm, with 40 cm high walls. The open-field arena was divided into a 6×6 grid of equally-sized squares using black tape (36 total squares) with 4 squares forming the centre; 12 squares forming the middle perimeter; and 20 squares forming the outer perimeter. The test started by placing a rat in the centre. The behavior of each rat in the open-field arena was recorded on video and scored afterwards by an observer blind to the experimental treatment of each rat. Time spent in each region of the open-field was recorded. In addition, locomotor activity was assessed by counting the number of times the rat's entire body (excluding tail) completely crossed into another square.
Following the OFT, the experimental rat was placed in an open field (0.9 m long×0.9 m wide with walls 0.3 m high) with an untreated novel partner rat. A video camera was fixed above the box, and all behavioral tests were videotaped. During the 5 min test the total amount of time the treated rat initiates interaction with the partner rat is recorded (sniffing, grooming etc.) as described previously. Videotaped sessions were scored at a later time by a SDF (blind to treatments) and a decrease in total interaction time was taken as an increase in “anxiety” like behavior.
Following the SI test, rats were place in the center area of the EPM where the two arms intersect. Unlike the SI test, the EPM measures many relevant anxiety related behaviors such as: no. of poke and full entries into and duration spent in closed versus open arm. […] Activity is measured using […] state of the art photobeams (16× beams and 16 Y beams) to provide the highest resolution system available (Automated EPM, Hamilton Kinder Scientific, San diego, CA).

Assay [1] relates to panic-prone (1-AG treated) rats. Nature of the assay: Sodium lactate (NaLac) challenge in panic-prone rats: open field test. The note with it: 30 mg/kg i.p. 30 min prior to NaLac, experiment 5. Here is the method:
The open-field arena covered an area of 0.9 m×0.9 m, with 0.4 m high walls. The open-field arena was divided into a 6×6 grid of equally-sized squares using black tape (36 total squares) with 4 squares forming the centre; 12 squares forming the middle perimeter; and 20 squares forming the outer perimeter. The test started by placing a rat in the centre. The behavior of each rat in the open-field arena was recorded on video and scored afterwards by an observer blind to the experimental treatment of each rat. Time spent in each region of the open-field was recorded.
In experiments 4-6, rats were made panic vulnerable with 1-AG. […] In experiment 5, baseline in an open field (OF) behavior test of anxiety was assessed (n=8) prior to 1-AG infusions. […] In experiment 7, control rats (no 1-AG or NaLac treatment) were assessed in a SI test.
All adult male Sprague-Dawley rats were anesthetized and surgically implanted with telemetrical probes to measure cardiovascular activity prior to and during lactate infusions. After a 3 day recovery, baseline open field behavior was assessed (n=8), then rats were anaesthetized and had osmotic minipumps (previously filled with 1-AG) stereotaxically implanted unilaterally into the DMH. […] Immediately following the lactate challenge, the rats were assessed for anxiety using the open field test.

Assay [2] relates to rats exposed to hypercarbic gas. As to the kind of experiment: Hypercarbic gas (20% CO2) challenge: open-field test. The note with it: 30 mg/kg i.p. Here is the method: On day 1, rats (n=3/group) were selected from their home cages and placed into experimental cages containing atmospheric air. […] Fecal pellets were counted in cages at the end of gas challenges. In order to assess anxiety-like behavioural responses following exposure to hypercarbic gas, rats were immediately transferred to an adjacent room and place in the center square of an open-field box for a 5 min test. On day 2, the experiment was repeated, but the treatments were reversed for each rat. For instance, rats that received atmospheric gas challenge on day 1 received the hypercapnic gas challenge on day 2.
as §1, with “center;” for “centre;”, “center.” for “centre.”, “observer (PLJ)” for “observer”
All rats received hypercarbic gas infusions as described in detail in Experiment 11. […] Blood pressure, heart rate, locomotor activity, number of fecal pellets and anxiety-like behavior were assessed as described in Experiment 11.
Dependent variables for analyses of cardiovascular responses (HR, MAP) and locomotor activity were analysed using a […], using gas infusion as the between-subjects factor and time as a within-subjects factor. Dependent variables for the number of fecal pellets and open-field anxiety test (i.e., time spent in each section, line crossings) were analysed using a one-way ANOVA with gas infusion in Experiment 11 and drug treatment in Experiment 12 as the between-subjects factors. […] Within-subjects comparisons were also made on the MAP and HR measures using a Dunnett's test for multiple comparisons with a single control using the 5 Min baseline measurement as the control. The alpha level was set at 0.05 in all cases.

For `Cc1nc2ccc(NC(=O)Nc3ccnc4cccnc34)cc2o1` [SB334867, N-(2-Methyl-6-benzoxazolyl)-N′-1,5-naphthyridin-4-yl urea], the “time in open arms of elevated plus maze” value with FG-7142 treated rats (FG-7142 7.5 mg/kg ip, with or without SB334867 30 mg/kg ip) is recorded as “higher time in open arms”. In the assay on FG-7142 treated rats (SB334867 30 mg/kg ip followed by FG-7142 7.5 mg/kg ip), the “FG-7142-induced anxiety behavior in the social interaction test” value is given as “blocked”. For the same compound, the “FG-7142 induced anxiety in the open field test” value in the assay on FG-7142 treated rats (SB334867 30 mg/kg ip followed by FG-7142 7.5 mg/kg ip, 15 min after FG-7142) was “appeared to have attenuated”. For the same compound, the “anxiety-like responses (decreased time spent in center of open field) after NaLac challenge” value in assay [1] is recorded as “attenuated”. Besides, in assay [2] (between groups), the “time spent in the center of open field after hypercarbic gas” value is on record as “No differences” and the “time spent in the outer perimeter of open field after hypercarbic gas” value was “No differences”. Moreover, in assay [2] (20% CO2/normoxic gas), the “hypercapnic gas-induced anxiety responses” value is “attenuated”. Also, the “time in the middle perimeter region of open field after hypercarbic gas” value in assay [2] (SB/CO2 vs Veh/CO2 group) was “significantly more time”.
